# Where two headings read alike, the source gives them in different places.
# Key:
# [1] = system: NCI-H1975 cells harboring EGFR L585R/T790M mutations
# Procedure: (§1) Immunocompromised nude/nude mice are inoculated in the right hind flank with NCI-H1975 cells harboring EGFR L585R/T790M mutations. When tumor volumes reach between 200-400 mm^3 in size, the mice are divided into four groups of 4-12 mice each. The first group is administered vehicle only. […] The fourth and fifth groups are administered the single agent dose of the EGFR inhibitor in combination with the single agent dose of the SOS1 inhibitor. The treatment period was 21 days. Tumor volumes are measured using a caliper every two-three days and tumor volumes are calculated by the formula: 0.5×(Length×Width)2.
# 30 nude/nude mice were inoculated in the right hind limb with 5×10^6 NCI-H1975 cells.
# [2] = system: PC9 cells harboring EGFR exon 19del (E746_A750del) mutation
# Procedure: as §1, with “NOD/SCID” for “nude/nude”, “PC9” for “NCI-H1975”, “exon 19del (E746_A750del) mutation.” for “L585R/T790M mutations.”, “100-150” for “200-400”, “27” for “21”, “0.5×(Length×Width) 2.” for “0.5×(Length×Width)2.”
# 30 NOD/SCID mice were inoculated in the right hind limb with 5×10^6 PC9 cells.
# [3] = Study Day 3, MRTX0902 50 mg/kg p.o.
# [4] = Study Day 10, MRTX0902 50 mg/kg p.o.
# [5] = Study Day 14, MRTX0902 50 mg/kg p.o.
# [6] = Study Day 21, MRTX0902 50 mg/kg p.o.
# [7] = Study Day 3, Osimertinib 2.5 mg/kg QD p.o.
# [8] = Study Day 10, Osimertinib 5 mg/kg QD p.o.
# [9] = Study Day 21, Osimertinib 5 mg/kg QD p.o.
smiles,measurement,setting,value
"Cc1c(C#N)cccc1[C@@H](C)Nc1nnc(C)c2cnc(N3CCOCC3)cc12 [MRTX0902, (R)-2-methyl-3-(1-((4-methyl-7-morpholinopyrido[3,4-d]pyridazin-1-yl)amino)ethyl)benzonitrile]",tumor growth inhibition,[1]; MRTX0902 50 mg/kg BID single agent,26%
same,Average Tumor Volume,"[1]; Study Day 0, MRTX0902 50 mg/kg p.o.",285 mm^3
same,Average Tumor Volume,[1]; [3],504 mm^3
same,Average Tumor Volume,"[1]; Study Day 7, MRTX0902 50 mg/kg p.o.",808 mm^3
same,Average Tumor Volume,[1]; [4],1028 mm^3
same,Average Tumor Volume,[1]; [5],1387 mm^3
same,Average Tumor Volume,"[1]; Study Day 17, MRTX0902 50 mg/kg p.o.",1527 mm^3
same,Average Tumor Volume,[1]; [6],1372 mm^3
same,tumor growth inhibition,[2]; MRTX0902 50 mg/kg BID,54%
same,Average Tumor Volume,[2]; [3],197 mm^3
same,Average Tumor Volume,"[2]; Study Day 6, MRTX0902 50 mg/kg p.o.",247 mm^3
same,Average Tumor Volume,[2]; [4],330 mm^3
same,Average Tumor Volume,[2]; [5],442 mm^3
same,Average Tumor Volume,"[2]; Study Day 18, MRTX0902 50 mg/kg p.o.",578 mm^3
same,Average Tumor Volume,[2]; [6],661 mm^3
same,Average Tumor Volume,"[2]; Study Day 24, MRTX0902 50 mg/kg p.o.",755 mm^3
same,Average Tumor Volume,"[2]; Study Day 27, MRTX0902 50 mg/kg p.o.",798 mm^3
same,Average Tumor Volume,"[2]; Study Day −1, MRTX0902 50 mg/kg p.o.",112 mm^3
"C=CC(=O)Nc1cc(Nc2nccc(-c3cn(C)c4ccccc34)n2)c(OC)cc1N(C)CCN(C)C [Osimertinib, osimertinib]",Average Tumor Volume,"[1]; Study Day 0, Osimertinib 2.5 mg/kg QD p.o.",286 mm^3
same,Average Tumor Volume,"[1]; Study Day 0, Osimertinib 5 mg/kg QD p.o.",286 mm^3
same,Average Tumor Volume,[1]; [7],288 mm^3
same,Average Tumor Volume,"[1]; Study Day 3, Osimertinib 5 mg/kg QD p.o.",173 mm^3
same,Average Tumor Volume,"[1]; Study Day 7, Osimertinib 2.5 mg/kg QD p.o.",325 mm^3
same,Average Tumor Volume,[1]; [8],70 mm^3
same,Average Tumor Volume,"[1]; Study Day 17, Osimertinib 2.5 mg/kg QD p.o.",468 mm^3
same,Average Tumor Volume,"[1]; Study Day 17, Osimertinib 5 mg/kg QD p.o.",83 mm^3
same,Average Tumor Volume,[1]; [9],135 mm^3
same,tumor growth,"[1]; mouse, in vivo",89%
same,tumor regression,"[1]; osimertinib 5 mg/kg single agent, day 17",−71%
same,Average Tumor Volume,[2]; [7],124 mm^3
same,Average Tumor Volume,"[2]; Study Day 6, Osimertinib 5 mg/kg QD p.o.",95 mm^3
same,Average Tumor Volume,[2]; [8],69 mm^3
same,Average Tumor Volume,"[2]; Study Day 14, Osimertinib 5 mg/kg QD p.o.",65 mm^3
same,Average Tumor Volume,"[2]; Study Day 18, Osimertinib 2.5 mg/kg QD p.o.",150 mm^3
same,Average Tumor Volume,"[2]; Study Day 18, Osimertinib 5 mg/kg QD p.o.",60 mm^3
same,Average Tumor Volume,[2]; [9],62 mm^3
same,Average Tumor Volume,"[2]; Study Day 24, Osimertinib 2.5 mg/kg QD p.o.",209 mm^3
same,Average Tumor Volume,"[2]; Study Day 27, Osimertinib 2.5 mg/kg QD p.o.",214 mm^3
same,Average Tumor Volume,"[2]; Study Day −1, Osimertinib 2.5 mg/kg QD p.o.",108 mm^3
same,tumor growth,"[2]; mouse, in vivo",92.8%
same,tumor regression,"[2]; osimertinib 5 mg/kg single agent, day 27",−32.5%

# Source: patent US20250177410A1, “COMBINATION THERAPIES COMPRISING A SOS1 INHIBITOR AND AN EGFR INHIBITOR” (Mirati Therapeutics, Inc., priority 2022, published 2025)
